From patent publication US7183276B2, “Azole compounds” (Takeda Pharmaceutical Company Limited, priority 2002, dated 2007)

Structure (SMILES)	melting point
CCOP(=O)(Cc1ccc(NC(=O)CCc2oc(Cl)nc2-c2ccc(Cl)cc2)cc1)OCC	137 to 138 °C
CCOP(=O)(Cc1cccc(NC(=O)CCCc2oc(-n3cnc4ccccc43)nc2-c2ccc(Cl)cc2)c1)OCC	135 to 136 °C
CCOP(=O)(Cc1ccc(NC(=O)CCCc2oc(-n3cnc4ccccc43)nc2-c2ccc(Cl)cc2)c(C)c1)OCC	118 to 119 °C
CCOP(=O)(OCC)c1ccc(NC(=O)CCCc2oc(-n3cnc4ccccc43)nc2-c2ccc(Cl)cc2)cc1	162 to 163 °C
CCOP(=O)(OCC)c1ccc(NC(=O)CCc2oc(-n3cnc4ccccc43)nc2-c2ccc(Cl)cc2)cc1	249 to 250 °C
CCOP(=O)(Cc1ccccc1NC(=O)CCCc1oc(-n2cnc3ccccc32)nc1-c1ccc(Cl)cc1)OCC	133 to 136 °C
CCOP(=O)(Cc1ccc(NC(=O)CCc2oc(C3CCCCC3)nc2-c2ccc(Cl)cc2)cc1)OCC	133 to 134 °C
CCOP(=O)(CCc1ccc(NC(=O)CCCc2oc(-n3cnc4ccccc43)nc2-c2ccc(Cl)cc2)cc1)OCC	116 to 117 °C
CCOP(=O)(Cc1ccc(NC(=O)CCc2oc(Cc3ccccc3)nc2-c2ccc(Cl)cc2)cc1)OCC	161 to 162 °C
CCOP(=O)(Cc1ccc(NC(=O)CCc2oc(-n3cnc(C)c3C)nc2-c2ccc(Cl)cc2)cc1)OCC	179 to 180 °C
CCOP(=O)(Cc1ccc(NC(=O)CCCc2oc(N3CCCC3)nc2-c2ccc(Cl)cc2)cc1)OCC	127 to 128 °C
CCOP(=O)(Cc1ccc(NC(=O)CCCc2oc(N3CCN(c4ccccn4)CC3)nc2-c2ccc(Cl)cc2)cc1)OCC	114 to 116 °C
CCOP(=O)(Cc1ccc(NC(=O)CCCc2oc(N3CCN(n4c(=O)[nH]c5ccccc54)CC3)nc2-c2ccc(Cl)cc2)cc1)OCC	205 to 209 °C
CCOP(=O)(Cc1ccc(NC(=O)CCc2oc(-c3ccc(F)cc3)nc2-c2ccc(Cl)cc2)cc1)OCC	148 to 149 °C
CCOP(=O)(Cc1ccc(NC(=O)CCc2sc(-n3cnc4ccccc43)nc2-c2ccc(Cl)cc2)cc1)OCC	150 to 151 °C
CCOP(=O)(Cc1ccc(NC(=O)CCc2sc(-n3cnc4ccccc43)nc2-c2ccccc2)cc1)OCC	142 to 143 °C
CCOP(=O)(Cc1ccc(NC(=O)/C=C/c2sc(-n3cnc4ccccc43)nc2C)cc1)OCC	150 to 151 °C
CCOP(=O)(Cc1ccc(NC(=O)CCc2oc(-c3ccc4ccccc4c3)nc2-c2ccc(Cl)cc2)cc1)OCC	191 to 192 °C
CCOP(=O)(Cc1ccc(NC(=O)/C=C/c2sc(-n3cnc4ccccc43)nc2C(C)(C)C)cc1)OCC	211 to 212 °C
CCOP(=O)(Cc1ccc(NC(=O)/C=C/c2sc(-n3cnc4ccccc43)nc2C(C)C)cc1)OCC	198 to 199 °C
CCOP(=O)(Cc1ccc(NC(=O)/C=C/c2sc(-n3cnc4ccccc43)nc2-c2ccccc2)cc1)OCC	229 to 230 °C
CCOP(=O)(Cc1ccc(NC(=O)CCc2sc(-n3cnc4ccccc43)nc2C(C)(C)C)cc1)OCC	155 to 156 °C
CCOP(=O)(Cc1ccc(NC(=O)CCc2sc(-n3cnc4ccccc43)nc2C(C)C)cc1)OCC	171 to 172 °C
CCOP(=O)(Cc1ccc(NC(=O)CCCc2sc(-n3cnc4ccccc43)nc2-c2ccc(Cl)cc2)cc1)OCC	140 to 141 °C

Structure (SMILES)	melting point
CCOP(=O)(Cc1ccc(NC(=O)Cc2sc(-n3cnc4ccccc43)nc2-c2ccc(Cl)cc2)cc1)OCC	154 to 155 °C
CCOP(=O)(Cc1ccc(NC(=O)CCc2oc(-c3cccs3)nc2-c2ccc(Cl)cc2)cc1)OCC	164 to 165 °C
CCOP(=O)(Cc1ccc(NC(=O)CCCCCc2sc(-n3cnc4ccccc43)nc2-c2ccc(Cl)cc2)cc1)OCC	149 to 151 °C
COP(=O)(Cc1ccc(NC(=O)CCCCCc2sc(-c3ccccc3)nc2-c2ccc(Cl)cc2)cc1)OC	164 to 165 °C
CCOP(=O)(Cc1ccc(NC(=O)CCCCc2sc(-n3cnc4ccccc43)nc2-c2ccc(Cl)cc2)cc1)OCC	168 to 169 °C
CCOP(=O)(Cc1ccc(NC(=O)CCc2oc(-n3ccnc3)nc2-c2ccc(Cl)cc2)cc1)OCC	196 to 197 °C
CCOP(=O)(Cc1ccc(NC(=O)CCc2oc(-n3nnc4ccccc43)nc2-c2ccc(Cl)cc2)cc1)OCC	91 to 92 °C
CCOP(=O)(Cc1ccc(NC(=O)CCc2sc(N)nc2-c2ccc(Cl)cc2)cc1)OCC	177 to 178 °C
CCOP(=O)(Cc1ccc(NC(=O)CCc2sc(NC(=O)c3ccccn3)nc2-c2ccc(Cl)cc2)cc1)OCC	184 to 185 °C
CCOP(=O)(Cc1ccc(NC(=O)CCc2sc(NC(=O)NC)nc2-c2ccc(Cl)cc2)cc1)OCC	206 to 207 °C
CCOP(=O)(Cc1ccc(NC(=O)CCc2sc(NC(=O)NCc3ccccc3)nc2-c2ccc(Cl)cc2)cc1)OCC	144 to 145 °C
CCOP(=O)(Cc1ccc(NC(=O)CCc2sc(NC(=O)Nc3ccccc3)nc2-c2ccc(Cl)cc2)cc1)OCC	175 to 176 °C
CCOP(=O)(Cc1ccc(NC(=O)CCc2sc(NS(=O)(=O)c3ccccc3)nc2-c2ccc(Cl)cc2)cc1)OCC	213 to 214 °C
CCOP(=O)(Cc1ccc(NC(=O)CCc2sc(NC(=O)c3ccccc3)nc2-c2ccc(Cl)cc2)cc1)OCC	171 to 172 °C
CCOP(=O)(Cc1ccc(NC(=O)CCc2sc(NC(=S)NCc3ccccc3)nc2-c2ccc(Cl)cc2)cc1)OCC	202 to 203 °C
CCOP(=O)(Cc1ccc(NC(=O)CCc2sc(NC(=S)NC(=O)c3ccccc3)nc2-c2ccc(Cl)cc2)cc1)OCC	208 to 209 °C
CCOP(=O)(Cc1ccc(NC(=O)CCc2sc(NC(=O)CCc3ccccc3)nc2-c2ccc(Cl)cc2)cc1)OCC	208 to 209 °C
CCOP(=O)(Cc1ccc(NC(=O)CCc2oc(C)nc2-c2ccc(Cl)cc2)cc1)OCC	155 to 156 °C
CCOP(=O)(Cc1ccc(NC(=O)CCc2oc(-n3cnc4ccccc43)nc2-c2ccccc2)cc1)OCC	148 to 149 °C
CCOP(=O)(Cc1ccc(NC(=O)CCc2oc(-n3cnc4ccccc43)nc2-c2ccc(OC)cc2)cc1)OCC	143 to 144 °C
CCOP(=O)(Cc1ccc(NC(=O)CCc2oc(-n3cnc4ccccc43)nc2-c2cccc(Cl)c2)cc1)OCC	98 to 99 °C
CCOP(=O)(Cc1ccc(NC(=O)CCc2oc(-n3cnc4ccccc43)nc2-c2ccc(F)cc2)cc1)OCC	95 to 96 °C
CCOP(=O)(Cc1ccc(NC(=O)CCc2oc(-c3ccc(OC)cc3)nc2-c2ccc(Cl)cc2)cc1)OCC	141 to 142 °C
CCCc1nc(-c2ccc(Cl)cc2)c(CCC(=O)Nc2ccc(CP(=O)(OCC)OCC)cc2)o1	108 to 109 °C

Structure (SMILES)	melting point
CCOP(=O)(OCC)C(F)(F)c1ccc(NC(=O)CCc2oc(-n3cnc4ccccc43)nc2-c2ccc(Cl)cc2)cc1	155 to 156 °C
CCOP(=O)(OCC)C(O)c1ccc(NC(=O)CCc2oc(-n3cnc4ccccc43)nc2-c2ccc(Cl)cc2)cc1 (centres unmarked)	171 to 172 °C
CCOP(=O)(OCC)C(OC)c1ccc(NC(=O)CCc2oc(-n3cnc4ccccc43)nc2-c2ccc(Cl)cc2)cc1 (centres unmarked)	191 to 192 °C
CCOP(=O)(Cc1ccc(NC(=O)CCc2oc(-n3ccnc3C)nc2-c2ccc(Cl)cc2)cc1)OCC	158 to 159 °C
CCOP(=O)(Cc1ccc(NC(=O)CCc2oc(Sc3ncccn3)nc2-c2ccc(Cl)cc2)cc1)OCC	146 to 147 °C
CCOP(=O)(Cc1ccc(NC(=O)CCc2oc(NCc3ccccc3)nc2-c2ccc(Cl)cc2)cc1)OCC	156 to 157 °C
CCOP(=O)(OCC)C(F)c1ccc(NC(=O)CCc2oc(-n3cnc4ccccc43)nc2-c2ccc(Cl)cc2)cc1 (centres unmarked)	152 to 155 °C
CCCc1nc(-c2ccc(Cl)cc2)c(CCC(=O)N2CCN(CC3CCN(C)CC3)CC2)o1.Cl.Cl	218 °C
CCOP(=O)(Cc1ccc(NC(=O)CCc2oc(Sc3ccccn3)nc2-c2ccc(Cl)cc2)cc1)OCC	146 to 147 °C
CCOP(=O)(Cc1ccc(NC(=O)CCCc2oc(-c3ccccc3)nc2-c2ccc(Cl)cc2)cc1)OCC	152 to 153 °C
CCOP(=O)(Cc1ccc(NC(=O)Cc2oc(-c3ccccc3)nc2-c2ccc(Cl)cc2)cc1)OCC	173 to 174 °C
CCOP(=O)(Cc1ccc(NC(=O)/C=C/c2oc(-c3ccccc3)nc2-c2ccc(Cl)cc2)cc1)OCC	204 to 206 °C
COP(=O)(Cc1ccc(NC(=O)CCc2oc(-c3ccccc3)nc2-c2ccc(Cl)cc2)cc1)OC	153 to 154 °C
CCOP(=O)(Cc1ccc(NC(=O)CCc2sc(-c3ccccc3)nc2-c2ccc(Cl)cc2)cc1)OCC	164 to 165 °C
CCOP(=O)(Cc1ccc(NC(=O)CCc2oc(N3CCOCC3)nc2-c2ccc(Cl)cc2)cc1)OCC	186 to 187 °C
CCOP(=O)(OCC)c1ccc(NC(=O)CCc2sc(-c3ccccc3)nc2-c2ccc(Cl)cc2)cc1	186 to 187 °C
CCOP(=O)(Cc1ccc(NC(=O)CCc2ocnc2-c2ccc(Cl)cc2)cc1)OCC	130 to 131 °C
CCOP(=O)(CCCNC(=O)CCc1oc(-n2cnc3ccccc32)nc1-c1ccc(Cl)cc1)OCC	130 to 131 °C
NC(=O)CCc1oc(-n2cnc3ccccc32)nc1-c1ccc(Cl)cc1 [Example 8, 3-[2-(1H-benzimidazol-1-yl)-4-(4-chlorophenyl)-5-oxazolyl]propionamide]	265 to 266 °C
NC(=O)CCc1oc(N2CCOCC2)nc1-c1ccc(Cl)cc1 [Example 9, 3-[4-(4-chlorophenyl)-2-(4-morpholinyl)-5-oxazolyl]propionamide]	180 to 181 °C
Cc1ccc(Sc2nc(-c3ccc(Cl)cc3)c(CCC(N)=O)o2)cc1 [Example 10, 3-[4-(4-chlorophenyl)-2-[(4-methylphenyl)sulfanyl]-5-oxazolyl]propionamide]	155 to 156 °C
NC(=O)CCc1oc(C2CCCCC2)nc1-c1ccc(Cl)cc1 [Example 17, 3-[4-(4-chlorophenyl)-2-cyclohexyl-5-oxazolyl]propionamide]	142 to 143 °C
NC(=O)CCc1oc(Cc2ccccc2)nc1-c1ccc(Cl)cc1 [Example 18, 3-[2-benzyl-4-(4-chlorophenyl)-5-oxazolyl]propionamide]	169 to 170 °C
